Assay results published in patent US20240285971A1, “Intratumoral Alpha-Emitter Radiation in Combination with Vasculature Inhibitors” (priority 2021, published 2024).

Test system: Glioblastoma Multiforme (GBM) xerographs, U87 cells
Experiment: DaRT with systemic BEV on U87 GBM xenografts, BEV started five days post seed insertion (FIG. 3)
Type: in vivo, athymic nude mice
Details: U87 intracutaneous flank tumors; single seed in tumor; BEV or IgG 5 mg/kg i.p., 3 doses per week for 3 weeks, from five days post seed insertion; compared with other groups
Protocol: In the experiment, the efficacy of DaRT with a systemic administration of BEV was tested on Glioblastoma Multiforme (GBM) xerographs. U87 cells were intracutaneously inoculated in a total of 5·10^6 cells per mouse (in a volume of 100 μl) to the flank of athymic nude mice. The tumors were allowed to grow to an average size of 5-6 mm (longest diameter) for 9 days, when either a single DaRT or inert (non-radioactive control) seed was inserted to the middle of each tumor. Five days post seed insertion, each mouse received an i.p (intraperitoneal) administration of either IgG (control antibody) or BEV. This administration included 3 doses per week (5 mg/kg each) for 3 consecutive weeks (a total of 9 doses). The mice were divided to 4 treatment groups as follows: • a. Inert+Control IgG (untreated control); • b. Inert+BEV (Bev as a monotherapy); • c. DaRT+Control IgG (DaRT as a monotherapy); • d. DaRT+BEV (The combined modality)
Tumor volumes were monitored 3 times per week, along with radioactivity measurement using a Geiger counter to confirm that the DaRT seeds are present in the tumor.

Substance: Bevacizumab
- tumor growth / tumor volume: moderate but significant attenuation in tumor growth
